Results on five molecules are retold here after patent US9440980B2, “Remedy for diabetes” (EA Pharma Co., Ltd., priority 2007, dated 2016).

Test [1] has as its target T1, Gβ1γ2-Myc (Homo sapiens, UniProt P62873).
T1 construct: made in house; host or cells: Sf21 insect cells (baculovirus), unpurified Triton X-100 extract
The test is described as follows: Gβ binding ability using Gβ-expressing insect cell extract solution (PD10 method). The settings on record: binding strength Compound 1>Compound 3>Compound 6, FIG. 8. The protocol:
The PD10 method was carried out as follows. To a microtube were added 250 μl of an RBA buffer, 100 μl of an RBA buffer containing 0 or 500 μM of the unlabeled Compound 1, 100 μl of the above extract solution, and 50 μl of an RBA buffer containing 2.5 μM of the ^3H-labeled Compound 1 successively, and the resultant mixture was stirred and left at room temperature for 1 hour. The entire reaction solution (0.5 ml) was added to a PD10 column sufficiently substituted with the RBA buffer, 2 ml of the RBA buffer was passed through the PD10 column, and thereafter further eluate by 1.5 ml of the RBA buffer was collected as a high-molecular fraction containing the protein, 15 ml of a liquid scintillator was added thereto, and the amount of the ^3H-labeled Compound 1 contained in the high-molecular fraction was measured by a scintillation counter. The count of the sample added with the unlabeled Compound 1 at the final concentration of 100 μM was considered to correspond to the nonspecific binding, the difference between the nonspecific binding count and the count of the sample not added with the unlabeled Compound 1 was considered to correspond to the specific binding, and thus the amount of the binding protein contained in the extract solution was evaluated.
Using the frozen insect cell Sf21 expressing the Gβ1, Myc-Gγ2, and Gαi1-His prepared in Example 19 (8), 10^7 cells were melted and suspended in 1.3 ml of an RBA buffer containing 1% Triton X-100 (75 mM Tris-HCl, 12.5 mM MgCl2, 2 mM EDTA, pH 7.4). […]
The inhibitory activity against the binding of the ^3H-labeled Compound 1 to the Gβ1γ2-Myc was considered to correspond to the activity of the compounds for binding to the Gβ1γ2-Myc. Thus, the activity of each of Compounds 1, 3, and 6 for binding to the Gβ1γ2-Myc was measured using the above extract solution. The activity of the ^3H-labeled Compound 1 for binding to the protein contained in the extract solution was measured by the PD10 method described in Example 15 (1). […]

Test [2] has as its system isolated adipocytes. The test is described as follows: Measurement of glucose uptake activity in isolated rat adipocytes (2-[14C]-deoxy-D-glucose). The class given is cell-based. As to conditions: Adipocyte, glucose uptake of insulin (100 nM) = 100%. The procedure:
A male Wistar rat was decapitated and exsanguinated, and then a paratesticular adipose tissue was resected therefrom after laparotomy. The tissue was cut in a KRH (Krebs-Ringer HEPES: 130 mM NaCl, 4.7 mM KCl, 1.2 mM KH2PO4, 1.2 mM MgSO4, 1 mM CaCl2, 25 mM HEPES) containing a BSA (bovine serum albumin), a collagenase (type I) was added thereto, and the resultant was subjected to a digestive treatment for about 40 minutes to obtain isolated adipocytes. The buffer was replaced to remove the collagenase, and a 2% BSA/KRH solution was added thereto, whereby the adipocytes were floated again to obtain a adipocytes suspension.
The glucose uptake activity of a test substance compound was evaluated in accordance with Non-Patent Document 14: Simpson et al., Annual Review of Biochemistry, 55, 1059, (1986). Thus, 200 μl of the adipocytes suspension was dispensed into each polystyrene test tube, 100 μl of a solution containing the test substance compound was added thereto, and the test tube was shaken and incubated at 37° C. for 30 minutes. The glucose uptake activity was evaluated by measuring the amount of 2-[^14C(U)]-deoxy-D-glucose uptaken per unit time. Thus, the 2-[^14C(U)]-deoxy-D-glucose was added to the preincubated adipocytes suspension at the final concentration of 0.5 μCi/sample, and after 5 minutes, cytochalasin B was added thereto at the final concentration of 10 μM to stop the glucose uptake. Dinonyl phthalate was superposed over the solution, the resultant was centrifuged to separate the fat cells from the buffer, and the amount of the 2-[^14C(U)]-deoxy-D-glucose contained in the fat cell layer was measured by a liquid scintillation counter, whereby the uptaken glucose amount was determined. The glucose uptake of insulin (100 nM) was evaluated in the same manner and considered to be 100%, and thus the EC50 value of each compound was obtained.

The test system of test [3] is HLF cell membrane. The test is described as follows: Binding assay of 3H-labeled Compound 1 using HLF cell membrane. The arrangement: species or system human. The settings on record: FIG. 4. The protocol: A cell membrane of a human liver-derived HLF cell was prepared as follows. HLF cells were approximately confluently cultured in a Dulbecco MEM medium containing 10% FCS in a cell culture dish having a diameter of 15 cm. The HLF cells cultured in 30 dishes were scraped by a cell scraper in the presence of an HMEE buffer (20 mM HEPES-KOH, 1 mM EDTA, 1 mM EGTA, and 2 mM MgCl2) to obtain about 30 ml of a cell suspension. The suspension was homogenized using a TEFLON (registered trademark) homogenizer (ice temperature, 1000 rpm, 15 stroke) and centrifuged at a low rate (1500 rpm, 5 minutes). […]
The binding assay of the ^3H-labeled Compound 1 on thus obtained cell membrane was carried out as follows. […] The filter plate was well washed with a TBS (20 mM Tris-HCl, 0.15 M NaCl, pH 7.4) containing 0.05% Twee-20 and sufficiently dried, 30 μl of a liquid scintillator (Microscinti 0, Packard) was added to the filter plate, and the ^3H count was measured by Topcount (Packard). […]
The inhibitory activity of each of the probe molecule compounds synthesized in Examples 2 and 7 to 10 against the binding of the ^3H-labeled Compound 1 to the HLF cell membrane was measured by the method described in Example 14 to confirm whether the probe compound could be bound to the binding protein like Compound 1. […]

Test [4] concerns Compound 6-induced Akt phosphorylation in differentiated 3T3L1 cell. The test is described as follows: Inhibition of Compound 6-induced Akt phosphorylation in differentiated 3T3L1 adipocytes. The class given is cell-based. As to conditions: 15 minutes pretreatment, FIG. 12. The protocol: The inhibitory activity of the inhibitor TGX-115 specific to the phosphoinositide 3-kinase (PI3-kinase) β and δ against Compound 6-induced Akt phosphorylation was measured by using a differentiated 3T3L1 cell converted to a adipocyte as follows. […] The differentiated 3T3L1 cells were seeded in a Dulbecco MEM medium containing 10% FCS in a 96-well plate (Collagen type I coated plate, IWAKI, Product No. 4860-010) at a ratio of 4×10^4 cells/well, cultured at 37° C. for about 16 hours in the presence of 5% CO2 to achieve sufficient attachment, and the medium was removed by suction. […] Then, 10 μl of a 0.1% BSA/Dulbecco MEM medium containing 3 mM of Compound 6 was added thereto, and a treatment was carried out at 37° C. for 10 minutes in the presence of 5% CO2.

T1 sequence (P62873 whole entry): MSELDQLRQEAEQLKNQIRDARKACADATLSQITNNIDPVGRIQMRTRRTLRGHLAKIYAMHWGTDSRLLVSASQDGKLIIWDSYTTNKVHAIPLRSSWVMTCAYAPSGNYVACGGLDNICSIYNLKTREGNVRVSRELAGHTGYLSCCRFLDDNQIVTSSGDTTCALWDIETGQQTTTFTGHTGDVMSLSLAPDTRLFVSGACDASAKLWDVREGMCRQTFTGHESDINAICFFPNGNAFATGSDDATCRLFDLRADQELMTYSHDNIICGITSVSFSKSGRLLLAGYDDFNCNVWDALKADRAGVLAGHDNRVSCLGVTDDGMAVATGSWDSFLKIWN
T1 sequence (P59768 with tags, fused parts or gaps partner limits assumed): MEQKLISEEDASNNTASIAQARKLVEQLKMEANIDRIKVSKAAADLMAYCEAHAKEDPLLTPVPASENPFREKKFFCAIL

`COc1ccccc1[C@@H]1C2=C(CNC2=O)N[C@@H]2CCCC[C@H]2N1C(=O)CCc1nccs1` [Compound 3]: the “binding to Gβ1γ2-Myc (inhibition of 3H-labeled Compound 1 binding)” value in test [1] was “could be bound to the Gβγ2-Myc”. In test [2], this molecule yielded an EC50 of 14 nM.

`O=C1NCC2=C1[C@@H](c1csc3ccccc13)N(C(=O)CCc1ccccn1)[C@@H]1CCCC[C@H]1N2` [Compound 4] registered an EC50 in test [2] of 6 nM.

On to `O=C1NCC2=C1[C@@H](c1cccc3ccoc13)N(C(=O)C1CC1)[C@@H]1CCCC[C@H]1N2` [Compound 5], for which, in test [2], a half-maximal response (EC50) required 1000 nM.

For `NCCOCCOc1ccccc1[C@@H]1C2=C(CNC2=O)N[C@@H]2CCCC[C@H]2N1C(=O)CCc1ccccn1` [Compound 7], the “inhibitory activity against the binding of the 3H-labeled Compound 1 to the HLF cell membrane” value in test [3] is listed as “equal to Compound 2”.

As to `Cc1ccccc1Oc1cccc2c(=O)cc(N3CCOCC3)[nH]c12` [TGX-115], the “inhibition of Akt phosphorylation by Compound 6” value in test [4] was “clearly inhibited”.
